In patent US20240018470A1, “METHOD OF MANIPULATING PLURIPOTENCY IN CELLS” (YALE UNIVERSITY, priority 2022, published 2024):

Key:
Xenopus embryos [1] = experiment: Gastrulation scoring (incomplete blastopore closure) in treated or kcnh6-depleted embryos; format: in vivo, Xenopus tropicalis; conditions: for inability to complete gastrulation: kcnh6 depletion, injected at one-cell stage
Description: All injections of Xenopus embryos were performed at the one-cell stage using a fine glass needle and Picospritzer system. A kcnh6 translation blocking (kcnh6 MO, 5′-[…]-3′, SEQ ID NO:1) and a scrambled morpholino oligonucleotide were obtained from Gene Tools LLC and injected at 10 ng to deplete kcnh6 or as a control, respectively. CRISPR sgRNAs for kcnh6 targeted either exon 3 or exon 4 based on the v7.1 gene model of the X. tropicalis genome (CRex3: 5′-[…]-3′, SEQ ID NO:2 and CRex4: 5′-[…]-3′, SEQ ID NO:3). CRISPR sgRNAs for cacna1c (5′-[…]-3′, SEQ ID NO:4) and cacna1g (5′-[…]-3′, SEQ ID NO:5) were designed from the v7.1 model of the Xenopus tropicalis genome. For F0 CRISPR knockdown, embryos were injected with 1.5 ng Cas9 Protein (PNA-Bio) and 400 pg of targeting sgRNA and raised to desired stages. […] Full length human KCNH6 (NM 030779.3; cloned in pCS107), GCaMP6 (subcloned in pCSDest) and mCherry cDNAs (Addgene #34935; in pCS2+), were used to generate capped mRNAs in vitro by first linearizing with appropriate restriction enzymes and then transcribing with the mMessage machine kit (Ambion). mRNAs were injected at 3 pg (human KCNH6), 150 pg (GCaMP6) and 150 pg (mCherry) per embryo. Embryos were raised at 21° C. to allow time for sufficient expression levels at blastula/gastrula stages.
(§1) Normal embryonic medium is 1/9× modified Ringer's (MR) containing 11 mM NaCl, 0.2 mM KCl, 0.2 mM CaCl2), 0.1 mM Mg2Cl and 0.55 mM HEPES. To allow Ergtoxin to penetrate the embryos, the present study manually removed the vitelline envelope of stage 8 embryos and incubated embryos in 1/9×MR containing 50 nM Ergtoxin (Alomone STE-450) until stage 12. Embryos were then transferred back into 1/9×MR lacking Ergtoxin to develop until stage 45 in order to score organ situs. Barium chloride was applied into the medium at 20 mM and embryos were thoroughly rinsed in 1/9×MR after each incubation period for further development in Ba2+-free medium. For extracellular K^+ manipulations, the KCl concentration in 1/9×MR was modified from 0.2 mM (normal) to 20 mM (high) or 0 mM (low). The ionophore valinomycin (ACROS) and L-type VGCC blocker Nifedipine (ACROS) were diluted in DMSO as stock solutions and applied to embryos in 1/9×MR at 2 nM and 10 μM respectively. Treatments performed during gastrulation were applied from stage 8 through stage 12, and embryos were then rinsed thoroughly and returned into 1/9×MR. For rapamycin, the present study created a standard stock solution of 50 mg/ml in DMSO. The stock solution was diluted 1:2500 in the appropriate embryonic media (final 20 μg/ml). Embryos were treated at stage 7 and then fixed at stage 11 for in situ hybridization.
(§2) In experiments where embryos were evaluated for phenotypes and scored (gastrulation, left-right patterning, in situ hybridizations) the present study carried out three to five biological replicates and Fisher's exact test to evaluate statistical significance. The animal cap experiment was performed twice with a total score of four to eight animal caps per experiment. For the calcium transient analyses, data was collected from three to five embryos in each experiment in three independent experiments, and statistical analyses on GCaMP/mCherry fluorescence intensity as well as Ca^2+ transient area were performed using student's t-test. For whole cell electrophysiological recordings, three to five embryos (two cells each) were examined for their membrane potential and statistical significance was tested by student's t-test. Graphs were designed using GraphPad Prism software. Models were created with BioRender.com.

Xenopus embryos [2] = experiment: Organ situs (left-right patterning) scoring in stage 45 tadpoles; format: in vivo, Xenopus tropicalis; conditions: for abnormal organ situs: kcnh6 depletion, injected at one-cell stage
Description: Stage 45 Xenopus embryos were paralyzed with benzocaine or tricaine and scored with a light stereomicroscope. Cardiac looping was determined by position of the outflow tract; D-loop: rightward, L-loop: leftward; A-loop: midline. Normal intestinal looping was scored as counter-clockwise rotation of the gut, while abnormal intestinal looping was scored as completely inverse gut rotation (clockwise) or complete lack of looping (un-looped). While a completely inverted gut rotation is clearly an abnormality of LR patterning, an unlooped gut is less clear so the present study only considered an unlooped gut as abnormal situs when combined with abnormal placement (left-sided or midline) of the gall bladder. To quantify total abnormal organ situs, each tadpole was counted only once, regardless of whether multiple organs were affected.
as §1, §2

Xenopus embryos [3] = experiment: Whole mount in situ hybridization for germ layer and pluripotency markers; format: in vivo, Xenopus tropicalis; conditions: for expression of ectodermin and myf5 on co-depletion in kcnh6 depleted embryos: CRISPR co-depletion
Description: In order to generate a full-length antisense probe for X. tropicalis kcnh6, kcnh6 cDNA was cloned from stage 45 tadpole whole mRNA using primers […] ID NO:10) and […] ID NO:11) (XM_012952904.1). It was noted that kcnh6 had been misannotated as kcnh2 in the v7.1 model of the X. tropicalis genome (The present study used NCBI Annotation XP_012808358.2 to identify KCNH6). […] GRPs were dissected post fixation and prior to dehydration to detect dandy. To detect putative gene expression in the prospective endoderm (mixer, vegT, kcnh6) gastrula stage embryos were bisected to facilitate better probe access. Briefly, whole mount in situ hybridization of digoxigenin-labeled antisense probes was performed overnight, the labelled embryos were then washed, incubated with anti-digoxigenin-AP Fab fragments (Roche 11093274910), and signal was detected using BM-purple (Roche 11442074001). Normal embryonic medium is 1/9× modified Ringer's (MR) containing 11 mM NaCl, 0.2 mM KCl, 0.2 mM CaCl2), 0.1 mM Mg2Cl and 0.55 mM HEPES. […] For extracellular K^+ manipulations, the KCl concentration in 1/9×MR was modified from 0.2 mM (normal) to 20 mM (high) or 0 mM (low). […] For rapamycin, the present study created a standard stock solution of 50 mg/ml in DMSO. The stock solution was diluted 1:2500 in the appropriate embryonic media (final 20 μg/ml). […] In experiments where embryos were evaluated for phenotypes and scored (gastrulation, left-right patterning, in situ hybridizations) the present study carried out three to five biological replicates and Fisher's exact test to evaluate statistical significance. The animal cap experiment was performed twice with a total score of four to eight animal caps per experiment. […] For whole cell electrophysiological recordings, three to five embryos (two cells each) were examined for their membrane potential and statistical significance was tested by student's t-test. Graphs were designed using GraphPad Prism software. Models were created with BioRender.com.

[4] = tested on: animal pole cells (prospective ectoderm); experiment: Intracellular Vm recordings in animal pole cells; format: in vivo, Xenopus tropicalis; conditions: high K^+ and ½ sodium replacement with choline; stage 9 animal pole
Description: For recordings, devitellinized, stage 10 kcnh6 or control MO injected embryos were mounted into non-toxic clay with their animal pole exposed and covered with 1/9×MR. To investigate the resting potential, animal pole cells were impaled with a high-impedance (˜70 Me), sharp microelectrode filled with 3 M KCl for intracellular recordings. The recordings were made using an Axon 200B amplifier and digitized using a Digidata 1320 digitizer. Jclamp software for Windows was used in current clamp mode. All electrodes were zeroed just before entry into the cells.
For the series of intracellular recordings in high K^+ and choline treated embryos, stage 8-9 embryos were impaled similarly with an electrode of […]. These recordings were made using a HEKA EPC10 amplifier. The present study used HEKA PatchMaster v2x67 software for Windows. […]
In experiments where embryos were evaluated for phenotypes and scored (gastrulation, left-right patterning, in situ hybridizations) the present study carried out three to five biological replicates and Fisher's exact test to evaluate statistical significance. […] For the calcium transient analyses, data was collected from three to five embryos in each experiment in three independent experiments, and statistical analyses on GCaMP/mCherry fluorescence intensity as well as Ca^2+ transient area were performed using student's t-test. […]

hESCs = experiment: hESC pluripotency marker immunofluorescence; format: cell-based, human; conditions: hESCs, rapamycin 100 nM, 5 days
Description: hESCs were grown in mTeSR1 ([…] Technologies) in tissue culture dishes coated with Matrigel (Corning; 1:200 in DMEM/F12) and kept at 37° C., 5% CO2. The cell lines used were ESI017 (ESIBIO) and H9.
Cells were dissociated with accutase and seeded onto 8 well imaging slides (ibidi 80826) at a density of 4-6×10^4/cm^2. Cells were seeded and maintained in Rock-inhibitor Y27672 (MCE; 10 μM) to increase survival and the uniformity of response. Treatments with 1 mM BaCl2 or 10 or 25 nM Ergtoxin or 100 nM rapamycin were initiated 4 hours after seeding. Differentiation was initiated 24 hours after seeding where indicated. To initiate differentiation, the media was replenished with/without BaCl2 or Ergtoxin and treated with the indicated growth factors or small molecules. Cells were incubated for the indicated times without media change before fixation.
Cells were fixed for 30 min in 4% paraformaldehyde, rinsed twice with DPBS (without Ca^2+ and Mg^2+, denoted DPBS^−/−), and blocked for 30 min at room temperature. The blocking solution contained 3% donkey serum and 0.1% Triton X-100 in 1×DPBS^−/−. After blocking, the cells were incubated with primary antibodies at room temperature for 2 hours. Antibodies and concentrations are listed below. Cells were washed three times with DPBST (1×DPBS^−/− with Tween 20) and incubated with secondary antibodies (AlexaFluor 488 A21206, AlexaFluor 555 A31570 and A21432, and AlexaFluor 647 A31571, Thermo Fisher; 1:500) and DAPI for 30 min at room temperature. After secondary antibody incubation, samples were washed in DPBST and then DPBS at room temperature.
Images were acquired using a 20×, NA 0.75 objective on an Olympus IX83 inverted epifluorescence microscope or an Olympus/Andor spinning disk confocal microscope. Cell segmentation was performed using ilastik software. This segmentation was cleaned (to remove debris and to separate merged cells) and mean nuclear protein intensities as well as standard errors were quantified using a custom MATLAB code. Nuclear intensities were normalized by DAPI to correct for intensity variation due to optics. […]

[5] = nifedipine-treated (10 μM) kcnh6 CR embryos
[6] = nifedipine-treated (10 μM) kcnh6 MO embryos

## [Ba+2].[Cl-].[Cl-] [Barium, Barium chloride]
Xenopus embryos [1]; depolarizing treatment at blastula/gastrula stages (stage 8-12), barium chloride 20 mM or KCl 20 mM, ±SEM
  embryos that failed to complete gastrulation: 37±3%
Xenopus embryos [2]; depolarizing treatment at blastula/gastrula stages, scored at stage 45, ±SEM
  embryos with misplacement of organs relative to the left-right axis (defective organ situs): 23±2%
Xenopus embryos [3]; depolarized embryos, stage 10
  markers of dorsal (gsc, nodal3) and ventral mesoderm (vent2): unaffected
  paraxial mesoderm fates (myoD, myf5, tbxt): lost

## cacna1g: CRISPR sgRNA for cacna1g (Cav3.1; T-type), SEQ ID NO:5 (guide GGTTAATGGCTCTCAGCGGGCGG; sgRNA chemistry not given here; the letters are possibly those of the target site)
Xenopus embryos [3]
  expression of ectodermin and myf5 on co-depletion in kcnh6 depleted embryos: no rescue

## COC(=O)C1=C(C)NC(C)=C(C(=O)OC)C1c1ccccc1[N+](=O)[O-] [nifedipine]
Xenopus embryos [3]; [5]
  embryos with absent ectodermin: 16±7%
  embryos with myf5 lost: 16±1%
Xenopus embryos [3]; [6]
  embryos with absent ectodermin: 17±3%
  embryos with myf5 lost: 18±5%

## C[N+](C)(C)CCO [choline]
[4]
  Vm: −41±4 mV

## CO[C@H]1C[C@@H]2CC[C@@H](C)[C@@](O)(O2)C(=O)C(=O)N2CCCC[C@H]2C(=O)O[C@H]([C@H](C)C[C@@H]2CC[C@@H](O)[C@H](OC)C2)CC(=O)[C@H](C)/C=C(\C)[C@@H](O)[C@@H](OC)C(=O)[C@H](C)C[C@H](C)/C=C/C=C/C=C/1C [rapamycin]
hESCs
  final cell numbers per well: reduce the final cell numbers per well

## CC(C)[C@@H]1NC(=O)[C@H](C)OC(=O)[C@@H](C(C)C)NC(=O)[C@@H](C(C)C)OC(=O)[C@H](C(C)C)NC(=O)[C@H](C)OC(=O)[C@@H](C(C)C)NC(=O)[C@@H](C(C)C)OC(=O)[C@H](C(C)C)NC(=O)[C@H](C)OC(=O)[C@@H](C(C)C)NC(=O)[C@@H](C(C)C)OC1=O [valinomycin]
Xenopus embryos [1]; kcnh6 CR embryos treated with valinomycin 2 nM, stage 8-12
  gastrulation defect in kcnh6 CR embryos: 16±7%

## cacna1c: CRISPR sgRNA for cacna1c (Cav1.2; L-type), SEQ ID NO:4 (guide GCAGACGGGGGCAGCGCCATTGG; sgRNA chemistry not given here; the letters are possibly those of the target site)
Xenopus embryos [3]
  expression of ectodermin and myf5 on co-depletion in kcnh6 depleted embryos: rescued expression

## CR-ex4: CRISPR sgRNA targeting kcnh6 exon 4, SEQ ID NO:3, injected with Cas9 protein (guide AGGGCGCTCTACATTTCCAATGG; sgRNA injected with Cas9 protein, chemistry not given here; the letters are possibly those of the target site)
Xenopus embryos [1]
  inability to complete gastrulation: 29±5%
Xenopus embryos [2]
  abnormal organ situs: 19±1%

## CR-ex3: CRISPR sgRNA targeting kcnh6 exon 3, SEQ ID NO:2, injected with Cas9 protein (guide GGAATAAGGGGTGAAGACAGCGG; sgRNA injected with Cas9 protein, chemistry not given here; the letters are possibly those of the target site)
Xenopus embryos [1]
  inability to complete gastrulation: 27±4%
Xenopus embryos [2]
  abnormal organ situs: 43±12%
